Laboratory results taken from ChEMBL document CHEMBL4507256 (2021).

How the values were obtained:
[1] = target: Cyclin-dependent kinase-like 1 (Homo sapiens) (UniProt Q00532); settings: Compound concentration 1000.0 nM
[2] = target: Serine/threonine-protein kinase WNK4 (Homo sapiens) (UniProt Q96J92); settings: Compound concentration 1000.0 nM
[3] = target: Mitogen-activated protein kinase kinase kinase 2 (Homo sapiens) (UniProt Q9Y2U5); settings: Compound concentration 1000.0 nM
[4] = target: Death-associated protein kinase 3 (Homo sapiens) (UniProt O43293); settings: Compound concentration 1000.0 nM
[5] = target: Mitogen-activated protein kinase kinase kinase 13 (Homo sapiens) (UniProt O43283); settings: Compound concentration 1000.0 nM
[6] = target: Macrophage colony-stimulating factor 1 receptor (Homo sapiens) (UniProt P07333); settings: Compound concentration 1000.0 nM
[7] = target: Histamine H3 receptor (Homo sapiens) (UniProt Q9Y5N1); settings: Compound concentration 10.0 uM
[8] = target: T1, 5-hydroxytryptamine receptor 2C (Homo sapiens) (UniProt P28335); settings: Compound concentration 10.0 uM
T1 sequence (whole entry): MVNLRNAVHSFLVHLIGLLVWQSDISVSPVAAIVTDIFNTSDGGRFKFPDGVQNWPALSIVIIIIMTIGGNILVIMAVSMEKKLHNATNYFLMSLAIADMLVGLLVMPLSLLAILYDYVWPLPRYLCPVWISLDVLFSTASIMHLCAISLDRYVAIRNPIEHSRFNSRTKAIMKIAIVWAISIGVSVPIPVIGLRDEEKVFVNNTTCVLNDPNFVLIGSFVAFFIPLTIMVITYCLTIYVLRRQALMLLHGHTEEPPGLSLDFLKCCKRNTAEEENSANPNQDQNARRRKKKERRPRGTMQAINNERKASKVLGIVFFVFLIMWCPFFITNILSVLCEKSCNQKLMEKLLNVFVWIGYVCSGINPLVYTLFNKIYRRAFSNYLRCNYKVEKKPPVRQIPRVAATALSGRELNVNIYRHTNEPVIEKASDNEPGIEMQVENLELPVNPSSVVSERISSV

[9] = target: Ribosomal protein S6 kinase alpha-4 (Homo sapiens) (UniProt O75676); settings: Compound concentration 1000.0 nM
[10] = target: Uncharacterized serine/threonine-protein kinase SBK3 (Homo sapiens) (UniProt P0C264); settings: Compound concentration 1000.0 nM
[11] = target: Activated CDC42 kinase 1 (Homo sapiens) (UniProt Q07912); settings: Compound concentration 1000.0 nM
[12] = target: Serine/threonine-protein kinase ICK (Homo sapiens) (UniProt Q9UPZ9); settings: Compound concentration 1000.0 nM
[13] = target: D(1A) dopamine receptor (Homo sapiens) (UniProt P21728); settings: Compound concentration 10.0 uM
[14] = target: Serine/threonine-protein kinase LATS1 (Homo sapiens) (UniProt O95835); settings: Compound concentration 1000.0 nM
[15] = tested on: Epidermal growth factor receptor (Homo sapiens), P00533 [G719C]; settings: Compound concentration 1000.0 nM
[16] = target: Fibroblast growth factor receptor 2 (Homo sapiens) (UniProt P21802); settings: Compound concentration 1000.0 nM
[17] = target: Serine/threonine-protein kinase 32B (Homo sapiens) (UniProt Q9NY57); settings: Compound concentration 1000.0 nM
[18] = target: Serine/threonine-protein kinase PAK 5 (Homo sapiens) (UniProt Q9P286); settings: Compound concentration 1000.0 nM
[19] = tested on: Mast/stem cell growth factor receptor Kit (Homo sapiens), P10721 [V559D,T670I]; settings: Compound concentration 1000.0 nM
[20] = tested on: Phosphatidylinositol 4,5-bisphosphate 3-kinase catalytic subunit alpha isoform (Homo sapiens), P42336 [E542K]; settings: Compound concentration 1000.0 nM
[21] = target: Ribosomal protein S6 kinase alpha-3 (Homo sapiens) (UniProt P51812); settings: Compound concentration 1000.0 nM
[22] = target: Serine/threonine-protein kinase NLK (Homo sapiens) (UniProt Q9UBE8); settings: Compound concentration 1000.0 nM
[23] = target: Mitogen-activated protein kinase kinase kinase 1 (Homo sapiens) (UniProt Q13233); settings: Compound concentration 1000.0 nM
[24] = target: Ephrin type-B receptor 4 (Homo sapiens) (UniProt P54760); settings: Compound concentration 1000.0 nM
[25] = target: Serine/threonine-protein kinase BRSK1 (Homo sapiens) (UniProt Q8TDC3); settings: Compound concentration 1000.0 nM
[26] = target: Serine/threonine-protein kinase ULK3 (Homo sapiens) (UniProt Q6PHR2); settings: Compound concentration 1000.0 nM
[27] = target: Tyrosine-protein kinase SYK (Homo sapiens) (UniProt P43405); settings: Compound concentration 1000.0 nM
[28] = target: Mitogen-activated protein kinase kinase kinase 12 (Homo sapiens) (UniProt Q12852); settings: Compound concentration 1000.0 nM
[29] = tested on: eIF-2-alpha kinase GCN2 (Homo sapiens), Q9P2K8 [S808G]; settings: Compound concentration 1000.0 nM
[30] = target: LIM domain kinase 1 (Homo sapiens) (UniProt P53667); settings: Compound concentration 1000.0 nM
[31] = target: GABA-A receptor; anion channel (Rattus norvegicus) (UniProt O09028+P15431+P18506+P18508+P19969+P20236+P23574+P23576+P28471+P28473+P30191+P62813+P63079+P63138+Q91ZM7+Q9ES14); settings: Compound concentration 10.0 uM
[32] = target: Megakaryocyte-associated tyrosine-protein kinase (Homo sapiens) (UniProt P42679); settings: Compound concentration 1000.0 nM
[33] = target: Casein kinase II subunit alpha (Homo sapiens) (UniProt P68400); settings: Compound concentration 1000.0 nM
[34] = tested on: Leucine-rich repeat serine/threonine-protein kinase 2 (Homo sapiens), Q5S007 [G2019S]; settings: Compound concentration 1000.0 nM
[35] = target: Mitogen-activated protein kinase kinase kinase 9 (Homo sapiens) (UniProt P80192); settings: Compound concentration 1000.0 nM
[36] = tested on: Mast/stem cell growth factor receptor Kit (Homo sapiens), P10721 [L576P]; settings: Compound concentration 1000.0 nM
[37] = target: Beta-2 adrenergic receptor (Homo sapiens) (UniProt P07550); settings: Compound concentration 10.0 uM

Chain of Death-associated protein kinase 3 (Homo sapiens) (O43293 whole entry, looked up): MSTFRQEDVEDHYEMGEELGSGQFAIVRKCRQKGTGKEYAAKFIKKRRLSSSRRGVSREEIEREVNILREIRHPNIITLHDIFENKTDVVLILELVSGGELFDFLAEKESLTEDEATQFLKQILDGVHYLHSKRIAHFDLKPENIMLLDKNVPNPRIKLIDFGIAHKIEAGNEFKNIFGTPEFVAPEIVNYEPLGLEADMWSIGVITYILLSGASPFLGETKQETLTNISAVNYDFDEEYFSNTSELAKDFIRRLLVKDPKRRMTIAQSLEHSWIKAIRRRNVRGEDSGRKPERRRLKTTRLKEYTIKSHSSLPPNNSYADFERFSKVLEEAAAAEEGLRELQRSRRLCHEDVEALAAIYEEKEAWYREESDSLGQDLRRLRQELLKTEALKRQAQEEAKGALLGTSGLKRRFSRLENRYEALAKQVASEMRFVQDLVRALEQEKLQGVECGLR
Chain of Serine/threonine-protein kinase PAK 5 (Homo sapiens) (Q9P286 whole entry, looked up): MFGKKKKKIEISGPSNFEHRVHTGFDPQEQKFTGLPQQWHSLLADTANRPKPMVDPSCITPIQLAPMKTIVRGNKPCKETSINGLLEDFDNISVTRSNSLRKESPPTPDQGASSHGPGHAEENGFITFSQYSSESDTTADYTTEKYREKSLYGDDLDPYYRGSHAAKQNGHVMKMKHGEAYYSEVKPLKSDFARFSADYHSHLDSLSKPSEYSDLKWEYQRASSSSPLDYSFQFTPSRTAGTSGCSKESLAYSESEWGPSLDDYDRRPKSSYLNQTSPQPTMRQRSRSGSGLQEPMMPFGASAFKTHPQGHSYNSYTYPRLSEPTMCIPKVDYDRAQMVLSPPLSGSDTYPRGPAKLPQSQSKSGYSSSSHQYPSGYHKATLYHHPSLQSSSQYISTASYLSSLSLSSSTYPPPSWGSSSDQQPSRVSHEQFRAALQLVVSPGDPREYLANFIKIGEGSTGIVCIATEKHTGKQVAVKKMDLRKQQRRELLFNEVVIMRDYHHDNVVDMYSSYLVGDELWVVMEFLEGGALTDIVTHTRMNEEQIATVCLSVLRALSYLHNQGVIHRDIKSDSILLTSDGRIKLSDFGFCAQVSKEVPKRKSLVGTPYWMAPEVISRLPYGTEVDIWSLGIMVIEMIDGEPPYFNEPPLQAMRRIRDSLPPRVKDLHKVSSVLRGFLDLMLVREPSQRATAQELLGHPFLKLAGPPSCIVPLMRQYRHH
Chain of Macrophage colony-stimulating factor 1 receptor (Homo sapiens) (P07333 whole entry): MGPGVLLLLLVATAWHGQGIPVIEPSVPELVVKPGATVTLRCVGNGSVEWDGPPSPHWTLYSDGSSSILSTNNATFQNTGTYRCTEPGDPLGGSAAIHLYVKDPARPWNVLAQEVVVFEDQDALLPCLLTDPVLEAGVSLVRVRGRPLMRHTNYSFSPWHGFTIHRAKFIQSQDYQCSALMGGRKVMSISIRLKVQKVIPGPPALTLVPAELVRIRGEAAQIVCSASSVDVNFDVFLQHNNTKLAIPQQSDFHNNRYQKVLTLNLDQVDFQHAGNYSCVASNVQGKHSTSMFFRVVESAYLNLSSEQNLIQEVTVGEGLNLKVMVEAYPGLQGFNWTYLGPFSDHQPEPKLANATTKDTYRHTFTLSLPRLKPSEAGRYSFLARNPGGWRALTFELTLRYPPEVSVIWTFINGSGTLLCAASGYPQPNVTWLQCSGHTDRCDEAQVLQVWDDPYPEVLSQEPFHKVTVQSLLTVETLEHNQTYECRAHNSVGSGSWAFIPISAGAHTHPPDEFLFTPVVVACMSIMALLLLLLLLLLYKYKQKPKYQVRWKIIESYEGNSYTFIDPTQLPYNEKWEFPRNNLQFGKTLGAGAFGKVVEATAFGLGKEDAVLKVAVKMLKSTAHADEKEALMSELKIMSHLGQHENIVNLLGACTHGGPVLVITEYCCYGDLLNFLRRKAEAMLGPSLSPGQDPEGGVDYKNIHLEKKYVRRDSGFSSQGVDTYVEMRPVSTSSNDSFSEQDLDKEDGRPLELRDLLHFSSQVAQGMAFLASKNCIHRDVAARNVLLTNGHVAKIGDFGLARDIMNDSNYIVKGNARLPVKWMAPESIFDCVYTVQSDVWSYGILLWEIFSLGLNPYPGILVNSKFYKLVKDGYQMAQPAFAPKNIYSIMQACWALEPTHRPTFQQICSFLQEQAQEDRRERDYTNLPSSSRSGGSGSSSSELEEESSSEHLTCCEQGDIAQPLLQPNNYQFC
Chain of Mast/stem cell growth factor receptor Kit (Homo sapiens), P10721 [V559D,T670I] (P10721 whole entry V559D/T670I, canonical isoform): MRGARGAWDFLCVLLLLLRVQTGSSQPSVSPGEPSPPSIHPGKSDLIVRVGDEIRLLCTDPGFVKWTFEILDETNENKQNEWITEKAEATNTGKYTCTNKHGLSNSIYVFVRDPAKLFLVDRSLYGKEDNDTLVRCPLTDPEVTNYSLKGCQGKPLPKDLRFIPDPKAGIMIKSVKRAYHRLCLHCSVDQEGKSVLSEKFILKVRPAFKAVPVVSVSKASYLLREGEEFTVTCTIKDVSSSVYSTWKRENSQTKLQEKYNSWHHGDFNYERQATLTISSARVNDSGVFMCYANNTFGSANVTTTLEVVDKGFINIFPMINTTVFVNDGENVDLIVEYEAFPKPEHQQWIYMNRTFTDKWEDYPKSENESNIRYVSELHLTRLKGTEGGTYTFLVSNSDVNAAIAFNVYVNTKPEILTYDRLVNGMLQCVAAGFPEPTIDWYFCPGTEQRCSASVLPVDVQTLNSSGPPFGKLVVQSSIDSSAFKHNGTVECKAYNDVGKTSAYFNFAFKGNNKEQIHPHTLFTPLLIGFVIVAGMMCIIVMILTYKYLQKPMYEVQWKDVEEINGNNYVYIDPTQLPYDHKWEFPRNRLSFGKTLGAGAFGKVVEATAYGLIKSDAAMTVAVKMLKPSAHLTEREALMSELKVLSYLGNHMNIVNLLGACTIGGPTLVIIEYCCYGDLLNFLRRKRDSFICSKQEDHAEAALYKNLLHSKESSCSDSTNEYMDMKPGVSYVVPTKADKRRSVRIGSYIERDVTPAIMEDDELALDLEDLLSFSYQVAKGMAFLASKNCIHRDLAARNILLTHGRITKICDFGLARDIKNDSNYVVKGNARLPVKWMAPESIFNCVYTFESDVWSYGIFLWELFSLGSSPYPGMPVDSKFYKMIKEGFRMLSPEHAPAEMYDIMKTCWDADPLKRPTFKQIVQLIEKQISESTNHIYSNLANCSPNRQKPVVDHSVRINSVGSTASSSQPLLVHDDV
Chain of Ribosomal protein S6 kinase alpha-3 (Homo sapiens) (P51812 whole entry): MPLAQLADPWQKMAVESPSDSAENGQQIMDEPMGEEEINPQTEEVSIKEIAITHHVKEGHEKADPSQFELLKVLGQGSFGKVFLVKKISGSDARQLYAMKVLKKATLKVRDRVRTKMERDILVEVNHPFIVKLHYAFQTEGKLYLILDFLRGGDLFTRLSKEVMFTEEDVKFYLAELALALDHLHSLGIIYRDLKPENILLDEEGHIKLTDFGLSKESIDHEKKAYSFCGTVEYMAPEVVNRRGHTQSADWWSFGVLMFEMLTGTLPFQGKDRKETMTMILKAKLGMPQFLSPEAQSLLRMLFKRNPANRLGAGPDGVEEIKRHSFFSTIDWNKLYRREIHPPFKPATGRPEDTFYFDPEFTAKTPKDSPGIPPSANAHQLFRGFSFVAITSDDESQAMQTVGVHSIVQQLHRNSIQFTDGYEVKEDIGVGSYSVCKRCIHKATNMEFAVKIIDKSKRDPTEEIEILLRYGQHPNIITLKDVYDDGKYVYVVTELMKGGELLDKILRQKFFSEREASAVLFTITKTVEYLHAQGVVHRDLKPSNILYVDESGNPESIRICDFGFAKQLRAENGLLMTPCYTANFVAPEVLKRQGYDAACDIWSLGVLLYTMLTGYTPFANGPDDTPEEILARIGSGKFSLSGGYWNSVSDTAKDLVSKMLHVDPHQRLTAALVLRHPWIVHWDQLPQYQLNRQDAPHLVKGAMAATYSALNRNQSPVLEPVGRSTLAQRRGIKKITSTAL
Chain of D(1A) dopamine receptor (Homo sapiens) (P21728 whole entry): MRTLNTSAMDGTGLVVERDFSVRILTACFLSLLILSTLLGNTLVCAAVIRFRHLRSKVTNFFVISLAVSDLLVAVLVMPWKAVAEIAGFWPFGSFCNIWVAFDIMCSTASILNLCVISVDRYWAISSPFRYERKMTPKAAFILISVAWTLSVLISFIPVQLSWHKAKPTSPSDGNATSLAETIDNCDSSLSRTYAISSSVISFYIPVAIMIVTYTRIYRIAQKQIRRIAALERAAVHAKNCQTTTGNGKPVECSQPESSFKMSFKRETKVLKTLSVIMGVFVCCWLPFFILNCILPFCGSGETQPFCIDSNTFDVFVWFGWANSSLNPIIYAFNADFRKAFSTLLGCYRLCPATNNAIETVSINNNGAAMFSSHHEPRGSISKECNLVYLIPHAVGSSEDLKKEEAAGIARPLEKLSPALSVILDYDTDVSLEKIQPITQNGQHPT
Chain of Uncharacterized serine/threonine-protein kinase SBK3 (Homo sapiens) (P0C264 whole entry): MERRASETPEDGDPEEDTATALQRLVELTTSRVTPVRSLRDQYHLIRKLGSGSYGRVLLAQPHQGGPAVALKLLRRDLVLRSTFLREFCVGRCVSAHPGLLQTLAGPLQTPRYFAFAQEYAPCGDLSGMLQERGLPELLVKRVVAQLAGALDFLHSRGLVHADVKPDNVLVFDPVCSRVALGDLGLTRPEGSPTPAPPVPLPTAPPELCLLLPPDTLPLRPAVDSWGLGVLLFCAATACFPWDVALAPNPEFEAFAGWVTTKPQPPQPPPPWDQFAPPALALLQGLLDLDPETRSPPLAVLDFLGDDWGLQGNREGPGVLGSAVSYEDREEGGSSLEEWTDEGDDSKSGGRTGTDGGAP
Chain of Cyclin-dependent kinase-like 1 (Homo sapiens) (Q00532 whole entry): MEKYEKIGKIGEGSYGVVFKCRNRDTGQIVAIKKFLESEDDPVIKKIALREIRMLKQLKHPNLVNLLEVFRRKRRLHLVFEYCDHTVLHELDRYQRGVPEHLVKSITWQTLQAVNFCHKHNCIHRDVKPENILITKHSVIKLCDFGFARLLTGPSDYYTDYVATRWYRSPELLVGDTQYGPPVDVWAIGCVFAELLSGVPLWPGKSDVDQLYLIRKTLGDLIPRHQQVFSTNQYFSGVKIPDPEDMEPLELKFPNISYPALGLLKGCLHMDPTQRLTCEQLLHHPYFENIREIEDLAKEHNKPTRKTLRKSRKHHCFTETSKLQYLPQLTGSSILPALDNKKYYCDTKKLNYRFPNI

SMILES | residual activity [1] | residual activity [2] | residual activity [3] | residual activity [4] | residual activity [5] | residual activity [6] | inhibition [7] | inhibition [8] | residual activity [9] | residual activity [10] | residual activity [11] | residual activity [12] | inhibition [13] | residual activity [14] | residual activity [15] | residual activity [16] | residual activity [17] | residual activity [18] | residual activity [19] | residual activity [20] | other results
CCC(=N\O)/C(C)=C/c1ccc(F)cc1 [A-079] | 81% | 100% | 85% | 87% | 96% | 91% | 4.32% | 32.7% | 96% | 100% | 85% | 100% | 13.4% | 100% | 64% | 93% | 100% | 100% | 95% | 100% | residual activity [21]: 81%; residual activity [22]: 100%; residual activity [23]: 63%; residual activity [24]: 73%; residual activity [25]: 100%; residual activity [26]: 74%; residual activity [27]: 100%; residual activity [28]: 76%; residual activity [29]: 70%; residual activity [30]: 78%; inhibition [31]: 21.5%; residual activity [32]: 72%; residual activity [33]: 74%; residual activity [34]: 100%; residual activity [35]: 77%; residual activity [36]: 100%; inhibition [37]: 6.61%
CCC(=N\O)/C(C)=C/c1ccc(F)c(C)c1 [A-226] | 91% | 78% | 100% | 98% | 23% | 90% | -0.3% | 27% | 100% | 100% | 100% | 97% | -0.91% | 89% | 83% | 100% | 99% | 100% | 100% | 54% | residual activity [21]: 100%; residual activity [22]: 56%; residual activity [23]: 100%; residual activity [24]: 100%; residual activity [25]: 99%; residual activity [26]: 100%; residual activity [27]: 76%; residual activity [28]: 100%; residual activity [29]: 50%; residual activity [30]: 100%; inhibition [31]: 20.3%; residual activity [32]: 100%; residual activity [33]: 100%; residual activity [34]: 100%; residual activity [35]: 100%; residual activity [36]: 94%; inhibition [37]: -1.29%
